Measurements: patent US10772967B2, “Enhanced anticancer agent” (priority 2014, dated 2020)
Where two headings read alike, the source gives them in different places.

Columns and labels:
[1] = Dose escalation of AG10 in rats, plasma concentration; settings: i.v., initial rapid decline of total plasma concentration
Description: Adult male Wistar rats, body weight ranging 160-200 g, were used for the study. […] Blood samples were collected at 0.08, 2, 4, 8, and 24 hour time intervals. The plasma samples were prepared by centrifugation at 15,000 RPM for 5 min. The resultant plasma was precipitated using 2× solvent B (95:5, Methanol-Water, 0.1% TFA).

[2] = tested on: T1, trypsin; assay: Trypsin cleavage experiment in buffer, 7-AMC release; format: biochemical; settings: hTTR present
T1 construct: purchased Gibco TrypLE Express
Description: We used trypsin to test the ability of hTTR to protect TLHE1-peptide conjugate (Conj1) from proteolysis in buffer. FIG. 14 illustrates the protection effect of binding to TTR on the stability of Conj1 in vitro. hTTR protects Conj1 against trypsin hydrolysis in buffer, according to some embodiments.
AFU is arbitrary fluorescence units.
The experiment was performed in quadruplicate.

[3] = Stability against proteolytic hydrolysis in human serum; settings: human serum pre-incubated with AG10 (10 μM)
Description: The amounts of compounds remaining in serum were quantitated at different time-points.

[4] = Pharmacokinetic profile of Conj3 and Conj4 in rats; settings: i.v.
Description: (§1) The concentration of test compounds in plasma was determined using validated HPLC method and plotted as a function of time after dosing. Concentrations are expressed as means (±SEM).
(§2) Jugular vein cannulated Sprague-Dawley male rats (200-220 g, 49-52 days old) were used for this study. An extension catheter was attached to the indwelling jugular vein cannula to facilitate remote sampling. The animals were randomly divided into two groups (N=3 or 4): control group and treatment group. […] Simultaneously, the control group was pretreated with vehicle (sterile water) followed by a single combined intravenous dose of molar equivalent of all test compounds as described above. Plasma was collected from each rat and precipitated using 2× solvent B (95:5, Methanol-Water, 0.1% TFA).

[5] = rat, in vivo, iv
Description: as §1, §2

[6] = Chemical stability in serum and simulated gastric acid; format: in vitro ADME; settings: at least 48 h
Text: Therefore, TLHE1 is a very good candidate for conjugation to peptides.

T1 sequence (P35049 25-248): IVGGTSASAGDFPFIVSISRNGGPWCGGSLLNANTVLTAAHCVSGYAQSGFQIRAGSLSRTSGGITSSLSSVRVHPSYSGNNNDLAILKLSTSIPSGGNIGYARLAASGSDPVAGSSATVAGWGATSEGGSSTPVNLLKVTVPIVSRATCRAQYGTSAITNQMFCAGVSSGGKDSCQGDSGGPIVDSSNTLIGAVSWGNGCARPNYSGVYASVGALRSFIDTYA

Cc1n[nH]c(C)c1CCCOc1cc(C(=O)O)ccc1F [AG10]
initial half-life [1]: 5 to 20 min

Cc1cc(=O)oc2cc(NC(=O)C(CCCCN)NC(=O)CNC(=O)C(CCCNC(=N)N)NC(=O)CCOCCOCCOCCN=[N+]=[N-])ccc12 (stereo not drawn) [Arg-Gly-Lys-MCA]
protection against proteolysis in the presence of hTTR (in words) [2]: no protection against proteolysis

CC[C@H](C)[C@H](NC(=O)[C@H](Cc1ccc(O)cc1)NC(=O)[C@@H]1CCCN1C(=O)[C@H](CCCNC(=N)N)NC(=O)[C@H](CCCNC(=N)N)NC(=O)[C@@H]1CCCN1C(=O)[C@H](CCCCN)NC(=O)[C@H](CC(N)=O)NC(=O)[C@H](CCC(=O)O)NC(=O)[C@H](Cc1ccc(O)cc1)NC(=O)[C@H](CC(C)C)NC(=O)[C@H](CCC(=O)O)NC(=O)CCOCCOCCOCCn1cc(CCCOc2cc(OCCCc3c(C)n[nH]c3C)cc(C(=O)O)c2)nn1)C(=O)N[C@@H](CC(C)C)C(=O)O [Conj2]
amount remaining after 24 h in serum pre-incubated with AG10 ([3]; 24 h): no detectable amount

Cc1n[nH]c(C)c1CCCOc1cc(OCCCc2cn(CCOCCOCCOCCC(=O)NC(CCC(=O)O)C(=O)NC(Cc3c[nH]cn3)C(=O)NC(Cc3c[nH]c4ccccc34)C(=O)NC(CO)C(=O)NC(Cc3ccc(O)cc3)C(=O)NCC(=O)NC(CC(C)C)C(=O)NC(CCCNC(=N)N)C(=O)N3CCCC3C(=O)NCC(N)=O)nn2)cc(C(=O)O)c1 (centres unmarked) [Conj3]
amount remaining after 48 h in serum pre-incubated with AG10 ([3]; 48 h): no detectable amount

Cc1n[nH]c(C)c1CCCOc1cc(OCCCc2cn(CCOCCOCCOCCC(=O)NCCCCC(NC(=O)C(Cc3ccc(O)cc3)NC(=O)C(CO)NC(=O)C(Cc3c[nH]c4ccccc34)NC(=O)C(Cc3c[nH]cn3)NC(=O)C3CCC(=O)N3)C(=O)NC(CC(C)C)C(=O)NC(CCCNC(=N)N)C(=O)N3CCCC3C(=O)NCC(N)=O)nn2)cc(C(=O)O)c1 (centres unmarked) [Conj4]
time present in circulation [4]: at least 12 h

CC(C)C[C@H](NC(=O)[C@@H](CCCCN)NC(=O)[C@H](Cc1ccc(O)cc1)NC(=O)[C@H](CO)NC(=O)[C@H](Cc1c[nH]c2ccccc12)NC(=O)[C@H](Cc1cnc[nH]1)NC(=O)[C@@H]1CCC(=O)N1)C(=O)N[C@@H](CCCNC(=N)N)C(=O)N1CCC[C@H]1C(=O)NCC(N)=O [GnRH-A, reference compound]
plasma levels after 2 h of administration [4]: no detectable levels

CC(C)C[C@H](NC(=O)[C@@H](CCCCNC(=O)CCOCCOCCOCCN=[N+]=[N-])NC(=O)[C@H](Cc1ccc(O)cc1)NC(=O)[C@H](CO)NC(=O)[C@H](Cc1c[nH]c2ccccc12)NC(=O)[C@H](Cc1c[nH]cn1)NC(=O)[C@@H]1CCC(=O)N1)C(=O)N[C@@H](CCCNC(=N)N)C(=O)N1CCC[C@H]1C(=O)NCC(N)=O [GnRH-A-Linker]
plasma levels after 2 h of administration [5]: no detectable levels

C#CCCCOc1cc(OCCCc2c(C)n[nH]c2C)cc(C(=O)O)c1 [TLHE1, 3-(3-(3,5-dimethyl-1H-pyrazol-4-yl)propoxy)-5-(pent-4-yn-1-yloxy)benzoic Acid]
degradation [6]: < 3%
